This note sets out measurements from publication PMC10689823, “Discovery of a Drug-like, Natural Product-Inspired DCAF11 Ligand Chemotype” (Nature Communications, 2023).

Structures are written as SMILES. Some results are limits rather than exact numbers.

One test deals with PDEδ (Homo sapiens, UniProt O43924). Description: PDEδ levels by Western blot in Jurkat cells. On the set-up: endogenous in cells; host or cells: Jurkat. It counts as cell-based. The settings on record: 10 μM, 6 h.
The subject of another test is Hep G2 cells. Description: Cell viability assay (CellTiter-Glo) in Hep G2 cells. Type of test: cell-based. Particulars: Homo sapiens, HepG2, 72 h. How it is done: Jurkat cells (3 × 10^3) and Hep G2 cells (3.5 × 10^3) were seeded in 96-well plates in 100 μL culture medium. Cells were treated with compounds dissolved in 50 μl medium at the indicated concentration for 72 h, at the same time, one plate of cells without compounds treatment was used for the cell count at time zero. After adding 40 μl of CellTiter-Glo® reagent (Promega, G7571) to each well for 10 min at room temperature, the luminescence was measured on a Spark® Multimode Microplate Reader (Tecan). The data was analyzed by the GraphPad Prism 9.0.
Background: Cellular ATP, detected with luciferase, serves as a proxy for viable cell number.

Test [1] concerns the target T1, DCAF11 (Homo sapiens, UniProt Q8TEB1). Description: Affinity-based enrichment (biotin-streptavidin pulldown) in Hep G2 cells overexpressing HA-DCAF11. Type of test: binding. The arrangement: host or cells: Hep G2. The settings on record: 100 μM compound 2 pretreatment for 1 h. As to the method:
Hep G2 cells (1 × 10^6 cells/well) were seeded in 6-well plates and incubated for 24 h. On the next day, the cells were transfected with 1 µg pCMV3-N-HA-DCAF11 plasmid (Sino Biological, HG16257-NY) or 1 µg empty vector (pcDNA3.1(+), Thermo Fisher, V79020) and 2.5 µL FuGENE® HD transfection reagent (Promega, E2311) per well. The cells were incubated for 48 h prior to treatment with 100 μM compound 2 for 1 h. […] The cells were washed with ice-cold PBS, then lysed in lysis buffer (150 mM sodium chloride, 1% NP-40, 50 mM TRIS-HCl, pH 8.0 with complete protease inhibitor cocktail (Roche, 11836170001)) for 30 min on ice. After centrifugation at 16,000 x g, the supernatant was transferred into a new tube and the protein concentration was determined using the DC protein assay (BIO-RAD, 5000116).
The supernatant was discarded and 1 mg of lysate in 500 µL lysis buffer was added to the beads and incubated for 1 h at room temperature with overhead rotation. The beads were washed twice with 500 µL washing buffer (50 mM PIPES (pH 7.4), 50 mM NaCl, 75 mM MgCl2, 5 mM EGTA, 0.1% NP-40, 0.1% Triton X-100, 0.1% Tween20) and twice with PBS for 10 min each at room temperature with overhead rotation. Enriched proteins were eluted by boiling of the beads at 95 °C for 5 min in 20 µL of a supersaturated (25 mM) biotin solution and visualized by Western Blotting as described above.

For test [2], the target named is T1, DCAF11. Description: In-gel fluorescence labelling of purified DCAF11. Type of test: binding. The settings on record: purified DCAF11 pretreated with compound 2 for 40 min, then 18 for 40 min. How it is done:
Purified DCAF11 protein (1 μg, Origene, TP760719) was diluted in PBS buffer that is mixed with compound 2 or BODIPY derivative 18 at the indicated concentration at room temperature. Samples were diluted with 5 × SDS sample loading buffer and heated at 95 °C for 5 min. Proteins were separated using SDS-PAGE and were visualized using the ChemiDoc MP Imaging System (BIO-RAD) at 488 nm and the results were analyzed by Image Lab (BIORAD).

A further test deals with T2, BRD2 and DCAF11 (Homo sapiens, UniProt P25440+Q8TEB1).
T2 construct: expressed in transfected cells; host or cells: Hep G2
Description: Co-immunoprecipitation of FLAG-BRD2 and HA-DCAF11 in Hep G2 cells. Type of test: cell-based. The settings on record: MG-132 10 μM, 40 min, compound 10 μM. As to the method:
Hep G2 cells were seeded in 6-well plates, 24 h later, cells were transiently transfected with HA-DCAF11 (Sino Biological, HG16257-NY) and FLAG-BRD2 for 48 h using the FuGENE® HD transfection reagent (Promega, E2311). […] After determination of the protein concentration, cell lysates were incubated with anti-FLAG magnetic beads (30 μl / sample, Sigma, M8823) at 4 °C for 4 h and washed three times with washing buffer (0.2% NP-40, 25 mM Tris-HCl pH 7.4, 150 mM NaCl). The beads were diluted with PBS, mixed with SDS sample buffer and heated at 95 °C for 10 min, followed by western blot analysis.

The next test concerns the target BRD2 (Homo sapiens, UniProt P25440). Description: BRD2 levels by Western blot in Hep G2 and MDA-MB-231 cells (incl. RNA interference). It counts as cell-based. On the set-up: endogenous in cells; host or cells: Hep G2; MDA-MB-231. As to the method: Cells were washed with PBS and lysed in lysis buffer (50 mM Tris-HCl, pH 7.4, 150 mM NaCl, 1% Triton X-100, 1% sodium deoxycholate, 0.1% SDS) with complete protease inhibitor cocktail (Roche, 11836170001) for 30 min on ice. For Ramos cells, cell pellets were lysed in lysis buffer (50 mM Tris-HCl, pH 8, 150 mM NaCl, 1% NP-40, 0.5% sodium deoxycholate) with complete protease inhibitor cocktail. After centrifugation at 16,000 x g, the supernatant was transferred into a new tube and the protein concentration was determined by DC protein assay (BIO-RAD, 5000116). Proteins were separated by SDS-PAGE and transferred to a PVDF membrane (Thermo scientific, 0.45 μm, 88518). For PDEδ, BRD2, GAPDH, BRD4, Vinculin and BTK, the membranes were blocked with Intercept® Blocking Buffer (LI-COR Biosciences, 927-70001) at room temperature for 1 h. The primary antibodies for these proteins were diluted with Intercept® Blocking Buffer (1:500 for PDEδ, 1:3000 for Vinculin, and 1:1000 for other proteins) and incubated with the membranes overnight at 4 °C. Membranes were washed with PBS + 0.1% Tween 20 (PBS-T) five times and incubated with secondary antibodies conjugated to IRDye® Infrared Fluorescent Dyes (1:5000, LI-COR Biosciences) at room temperature for 1 h with protection from light. After washing the membrane, signals were visualized using the ChemiDoc MP Imaging System (BIO-RAD Laboratories). For detection of LC3B, BRD3, BLK, DCAF11, DDB1 RBX1, FIP200, V5- and FLAG-Tag the membranes were blocked with 5% milk in PBS-T at room temperature for 1 h. The primary antibodies for these proteins were diluted in 5% milk in PBS-T buffer (1:200 for BRD3, 1:1000 for other proteins) and incubated with the membranes overnight at 4 °C. Membranes were washed with PBS-T five times and incubated with HRP secondary antibodies (1:1500) at room temperature for 1 h. After washing the membrane, protein detection was performed using Western blotting detection reagent (Thermo Scientific, 34095) and the ChemiDoc MP Imaging System (BIO-RAD). Relative band intensities were quantified using Image Lab (BIO-RAD).
(In general: In western blotting, separated proteins are transferred to a membrane and probed.)

A word on the GI50: it is the concentration that inhibits growth by half. Lower therefore signals more potent growth inhibition.

In the case of `O=C1Nc2ccc(Br)cc2C1=Cc1cc(Br)c(O)c(Br)c1` [Compound 2], the “PDEδ protein levels, ligands alone or in combination” value on PDEδ is on record as “did not reduce PDEδ protein levels”. For the same molecule, the GI50 in the test with Hep G2 cells was > 30 µM. For the same molecule, the “competition of DCAF11 enrichment by probe 14” value at DCAF11 [1] was “reduced the enrichment”. For the same molecule, the “competition of DCAF11 labelling by 18” value on DCAF11 [2] is given as “binding is prevented”.
With `Cc1sc2c(c1C)C(c1ccc(Cl)cc1)=N[C@@H](CC(=O)NCCOCCOCCOCCOCCNC(=O)COc1c(Br)cc(/C=C3\C(=O)Nc4ccc(Br)cc43)cc1Br)c1nnc(C)n1-2` [Compound 9], the “complex formation between BRD2 and DCAF11 (co-immunoprecipitation)” value on BRD2 and DCAF11 is “mediates complex formation between BRD2 and DCAF11”. For the same molecule, the “BRD2 depletion in Hep G2 and MDA-MB-231 cells” value on BRD2 (4 h) was “BRD2 depletion was also observed”. Moreover, the “BRD2 degradation after siRNA-mediated depletion of RBX1” value at BRD2 (MDA-MB-231 cells, RBX1 siRNA 30 nM, 48 h, 3 μM compound 9, 4 h) was “did not induce degradation of BRD2 anymore”.
